The assay concerns SARS-CoV-2 (WA1). The assay can be described thus: microbe, parasite or virus in culture. Format: cell-based.
Setting [1] is: Severe acute respiratory syndrome coronavirus 2, Vero C1008, VIRADEM compounds, SARS-CoV-2(WA1) CPE assay, Round 2, concentration range 1000-0.05 nM, Vero E6, read-out: IC50.
The mark [2] stands for this setting: Severe acute respiratory syndrome coronavirus 2, Vero C1008.
The mark [3] stands for this setting: VIRADEM compounds, SARS-CoV-2(WA1) CPE assay, Round 2, concentration range 1000-0.05 nM, Vero E6, read-out: IC50.

Where a name gives a salt, the structure may show the parent alone. Read-outs that look alike come from different tables or passages of the source.

A word on the IC50: it is the concentration at which inhibition is half-maximal. With `COc1ccc(Nc2nc(N3CCOCC3)nc(N3CCCc4ccccc43)n2)cc1` [VIRADEM-15272, [4-(3,4-Dihydro-2H-quinolin-1-yl)-6-morpholin-4-yl-[1,3,5]triazin-2-yl]-(4-methoxyphenyl)-amine], the IC50 under setting [1] was > 1000 nM. Still for that read-out and setting: with `CC(=O)c1cccc(Nc2nc(Nc3cccc(Cl)c3)nc(N3CCOCC3)n2)c1` [VIRADEM-12188, 1-{3-[4-(3-Chlorophenylamino)-6-morpholin-4-yl-[1,3,5]triazin-2-ylamino]-phenyl}-ethanone] the figure was 320 nM. Under setting [2], `Cc1ccc(Nc2nc(Nc3cccc(C(F)(F)F)c3)nc(N3CCOCC3)n2)cc1C` [VIRADEM-11914, N-(3,4-Dimethylphenyl)-6-morpholin-4-yl-N^1-(3-trifluoromethylphenyl)-[1,3,5]triazine-2,4-diamine] displayed a half-inhibitory concentration (IC50) of 130 nM.

`Cc1cccc(N2C(N3CCOCC3)=NC(N)=NC2Nc2cccc(Cl)c2)c1` (stereo not drawn) [VIRADEM-11781, N-(3-Chlorophenyl)-6-morpholin-4-yl-N^1-m-tolyl-[1,3,5]triazine-2,4-diamine hydrochloride]: the IC50 under setting [1] was determined as 110 nM. With `c1ccc(Nc2nc(N3CCOCC3)nc(N3CCOCC3)n2)cc1` [VIRADEM-10846, (4,6-Dimorpholin-4-yl-[1,3,5]triazin-2-yl)-phenylamine hydrochloride], the half-inhibitory concentration (IC50) under setting [1] is > 1000 nM. For `NC1=NC(Nc2ccc3c(c2)OCO3)N(c2ccc(F)cc2)C(N2CCOCC2)=N1` (stereo not drawn) [VIRADEM-11674, N-Benzo[1,3]dioxol-5-yl-N^1-(4-fluorophenyl)-6-morpholin-4-yl-[1,3,5]triazine-2,4-diamine hydrochloride], under setting [1], the IC50 turned out to be 200 nM. Still for that read-out and setting: with `C1CCC(Nc2nc(N3CCOCC3)nc(N3CCOCC3)n2)C1` [VIRADEM-14309, Cyclopentyl-(4,6-dimorpholin-4-yl-[1,3,5]triazin-2-yl)-amine] the figure was > 1000 nM; with `CCc1ccc(Nc2nc(N3CCOCC3)nc(N3CCOCC3)n2)cc1` [VIRADEM-10883, (4,6-Dimorpholin-4-yl-[1,3,5]triazin-2-yl)-(4-ethylphenyl)-amine hydrochloride], 990 nM. Take “N-(3-Fluorophenyl)-6-pyrrolidin-1-yl-1,3,5]triazine-2,4-diamine hydrochloride [VIRADEM-12180]”: under setting [3], the half-inhibitory concentration (IC50) was > 1000 nM. As to `CCOC(=O)c1ccc(Nc2nc(Nc3ccc(F)cc3)nc(N3CCOCC3)n2)cc1` [VIRADEM-11660, 4-[4-(4-Fluorophenylamino)-6-morpholin-4-yl-[1,3,5]triazin-2-ylamino]benzoic acid ethyl ester], the IC50 under setting [1] was 120 nM. For the compound `c1ccc(Oc2ccc(Nc3nc(C4CCNC4)nc(C4CCNC4)n3)cc2)cc1` (stereo not drawn) [VIRADEM-11503, (4,6-Dipyrrolidin-4-yl-[1,3,5]triazin-2-yl)-(4-phenoxyphenyl)-amine hydrochloride], the IC50 under setting [1] was > 1000 nM. Still for that read-out and setting: then `c1cc2c(cc1CNc1nc(N3CCOCC3)nc(N3CCOCC3)n1)OCO2` [VIRADEM-15201, Benzo[1,3]dioxol-5-ylmethyl-(4,6-dimorpholin-4-yl-[1,3,5]triazin-2-yl)-amine], with > 1000 nM; and `CC(C)(C)c1nnc(N2CCOCC2)nc1Nc1ccccc1` [VIRADEM-13044, (6-tert-Butyl-3-morpholin-4-yl-[1,2,4]triazin-5-yl)-phenyl-amine], with > 1000 nM. As to `CCOc1cccc(N2C(N3CCCC3)=NC(N)=NC2Nc2ccc(C)c(C)c2)c1` (stereo not drawn) [VIRADEM-12185, N-(3,4-Dimethylphenyl)-N^1-(3-ethoxyphenyl)-6-pyrrolidin-1-yl-[1,3,5]triazine-2,4-diamine hydrochloride], the concentration for half-maximal inhibition (IC50) under setting [1] was > 1000 nM. For `c1ccc(CN2CCN(c3nc(N4CCOCC4)nc(N4CCOCC4)n3)CC2)cc1` [VIRADEM-15199, 2-(4-Benzylpiperazin-1-yl)-4,6-dimorpholin-4-yl-[1,3,5]triazine], the IC50 under setting [1] is > 1000 nM.

As for `Cc1cccc(N2C(N3CCOCC3)=NC(N)=NC2Nc2ccc(F)cc2)c1` (stereo not drawn) [VIRADEM-11787, N-(4-Fluorophenyl)-6-morpholin-4-yl-N^1-m-tolyl-[1,3,5]triazine-2,4-diamine hydrochloride], under setting [1], the IC50 is 360 nM. On the same count and under the same terms, with `c1ccc2c(c1)CCN2c1nc(N2CCOCC2)nc(N2CCOCC2)n1` [VIRADEM-15355, 1-(4,6-Dimorpholin-4-yl-[1,3,5]triazin-2-yl)-2,3-dihydro-1H-indole] the figure was > 1000 nM; with `Fc1ccc(Nc2nc(N3CCOCC3)nc(N3CCOCC3)n2)cc1` [VIRADEM-10849, (4,6-Dimorpholin-4-yl-[1,3,5]triazin-2-yl)-(4-fluorophenyl)-amine hydrochloride], > 1000 nM.

In the case of `CCOc1ccc(Nc2nc(N3CCCC3)nc(N3CCCC3)n2)cc1` [VIRADEM-11515, (4,6-Dipyrrolidin-1-yl-[1,3,5]triazin-2-yl)-(4-ethoxyphenyl)-amine hydrochloride], the IC50 under setting [1] was > 1000 nM. With `CCOC(=O)c1ccc(Nc2nc(Nc3ccc(C)c(C)c3)nc(N3CCOCC3)n2)cc1` [VIRADEM-11913, 4-[4-(3,4-Dimethylphenylamino)-6-morpholin-4-yl-[1,3,5]-2-ylamino]-benzoic acid ethyl ester], the half-maximal inhibitory concentration (IC50) under setting [3] turned out to be 40 nM. Take `NC(=O)C1CCN(c2nc(N3CCOCC3)nc(N3CCOCC3)n2)CC1` [VIRADEM-15361, 1-(4,6-Dimorpholin-4-yl-[1,3,5]triazin-2-yl)-piperidine-4-carboxylic acid amide]: the half-inhibitory concentration (IC50) under setting [1] was > 1000 nM.

As for `Cc1ccc(Nc2nc(N3CCOCC3)nc(N3CCC(C)CC3)n2)cc1C` [VIRADEM-15231, (3,4-Dimethylphenyl)-[4-(4-methylpiperidin-1-yl)-6-morpholin-4-yl-[1,3,5]triazin-2-yl]-amine], the concentration for half-maximal inhibition (IC50) under setting [1] was found to be 350 nM. As to `CC(=O)c1cccc(Nc2nc(Nc3ccc(C(C)C)cc3)nc(N3CCOCC3)n2)c1` [VIRADEM-12305, 1-{3-[4-(4-Isopropylphenylamino)-6-morpholin-4-yl-[1,3,5]triazin-2-ylamino]-phenyl}-ethanone], the IC50 under setting [1] was found to be 450 nM. As for `COc1ccccc1N1C(N2CCOCC2)=NC(N)=NC1Nc1cc(C)cc(C)c1` (stereo not drawn) [VIRADEM-12270, N-(3,5-Dimethylphenyl)-N^1-(2-methoxyphenyl)-6-morpholin-4-yl-[1,3,5]triazine-2,4-diamine hydrochloride], the 50% inhibitory concentration (IC50) under setting [1] stood at 380 nM.

In the case of `Clc1ccc(Nc2nc(N3CCOCC3)nc(N3CCOCC3)n2)cc1Cl` [VIRADEM-10258, (3,4-Dichlorophenyl)-(4,6-dimorpholin-4-yl-[1,3,5]triazin-2-yl)-amine hydrochloride], the half-inhibitory concentration (IC50) under setting [1] came out at 610 nM.

Consider `COc1ccc(Nc2nc(N3CCOCC3)nc(N3CCOCC3)n2)cc1` [VIRADEM-10885, (4,6-Dimorpholin-4-yl-[1,3,5]triazin-2-yl)-(4-methoxyphenyl)-amine hydrochloride], for which the IC50 under setting [1] is > 1000 nM. The same measure, in the same setting: then `CC(C)c1ccc(Nc2nc(N3CCCC3)nc(N3CCCC3)n2)cc1` [VIRADEM-12307, (4,6-Dipyrrolidin-1-yl-[1,3,5]triazin-2-yl)-(4-isopropylphenyl)-amine hydrochloride], with > 1000 nM. `Fc1ccc(Nc2nc(N3CCOCC3)nc(N3CCOCC3)n2)cc1Cl` [VIRADEM-10893, (3-Chloro-4-fluorophenyl)-(4,6-dimorpholin-4-yl-[1,3,5]triazin-2-yl)-amine hydrochloride]: under setting [1], the concentration for half-maximal inhibition (IC50) is > 1000 nM.

For `c1cc2c(cc1Nc1nc(Nc3ccc4c(c3)OCO4)nc(N3CCOCC3)n1)OCO2` [VIRADEM-11566, N,N^1-bis-benzo[1,3]dioxol-5-yl-6-morpholin-4-yl-[1,3,5]triazine-2,4-diamine], under setting [1], the IC50 was 320 nM. With `CCCCc1ccc(Nc2nc(N3CCOCC3)nc(N3CCOCC3)n2)cc1` [VIRADEM-10257, (4-n-Butylphenyl)-(4,6-dimorpholin-4-yl-[1,3,5]triazin-2-yl)-amine hydrochloride], the IC50 under setting [1] was > 1000 nM. The same measure, in the same setting: with `COc1ccc(Nc2nc(N3CCCCC3)nc(N3CCCCC3)n2)cc1` [VIRADEM-11041, (4,6-Dipiperidine-1-yl-[1,3,5]triazin-2-yl)-(4-methoxyphenyl)-amine hydrochloride] the figure was > 1000 nM; with `Cc1cc(C)cc(N2C(N3CCCC3)=NC(N)=NC2Nc2cccc(Cl)c2)c1` (stereo not drawn) [VIRADEM-12278, N-(3-Chlorophenyl)-N^1-(3,5-dimethylphenyl)-6-pyrrolidin-1-yl-[1,3,5]triazine-2,4-diamine hydrochloride], > 1000 nM. On to `CCCCc1ccc(Nc2nc(N3CCCC3)nc(N3CCCC3)n2)cc1` [VIRADEM-11511, (4-Butylphenyl)-(4,6-dipyrrolidin-1-yl-[1,3,5]triazin-2-yl)-amine hydrochloride], for which the IC50 under setting [1] was > 1000 nM. As to `c1ccc(Nc2nc(N3CCCC3)nc(N3CCCC3)n2)cc1` [VIRADEM-11528, (4,6-Dipyrrolidin-1-yl-[1,3,5]triazin-2-yl)-phenylamine hydrochloride], under setting [1], the half-maximal inhibitory concentration (IC50) is > 1000 nM. Take `c1coc(CNc2nc(N3CCOCC3)nc(N3CCOCC3)n2)c1` [VIRADEM-15234, (4,6-Dimorpholin-4-yl-[1,3,5]triazin-2-yl)-furan-2-ylmethylamine]: the IC50 under setting [1] is > 1000 nM. As for `Cc1ccc(Nc2nc(N3CCOCC3)nc(N3CCOCC3)n2)cc1C` [VIRADEM-10884, (3,4-dimethylphenyl)-(4,6-dimorpholin-4-yl-[1,3,5]triazin-2-yl)-amine], the midpoint of inhibition under setting [2], the IC50, lay at 80 nM. As to `COc1ccccc1Nc1nc(N2CCOCC2)nc(N2CCOCC2)n1` [VIRADEM-10881, (4,6-Dimorpholin-4-yl-[1,3,5]triazin-2-yl)-(2-methoxyphenyl)-amine hydrochloride], under setting [1], the IC50 was > 1000 nM.

`CCc1ccc(Nc2nc(Nc3ccc(Cl)c(Cl)c3)nc(N3CCOCC3)n2)cc1` [VIRADEM-11758, N-(3,4-Dichlorophenyl)-N^1-(4-ethyphenyl)-6-morpholin-4-yl-[1,3,5]triazine-2,4-diamine]: the half-inhibitory concentration (IC50) under setting [3] was > 1000 nM. For the compound `S=C(NNc1nc(N2CCOCC2)nc(N2CCOCC2)n1)Nc1ccccc1` [VIRADEM-10867, 2-(4,6-dimorpholine-4-yl-1,3,5-triazine-2-yl)-N-phenylhydrazine-carbothioamide], under setting [1], the half-inhibitory concentration (IC50) was > 1000 nM.

The values above are taken from patent US20260076973A1 (priority 2023, published 2026).
